Laboratory results taken from ChEMBL document CHEMBL5131541, “Structural Feature Analyzation Strategies toward Discovery of Orally Bioavailable PROTACs of Bruton's Tyrosine Kinase for the Treatment of Lymphoma” (J Med Chem, 2022).
pIC50: −log10 of the molar value. Calls of active or inactive are those of the source. No cut-off for these calls is given here.

Legend:
[1] = Induction of leukocyte c-SRC kinase degradation in human MINO cells at 100 nM measured after 8 hrs by proteomic analysis
[2] = Volume of distribution at steady state in ICR mouse at 2 mg/kg, iv measured upto 48 hrs by LC/MS analysis; type: ADME, organism-based; details: in vivo, read-out: Vdss
[3] = tested on: OCI-Ly10; test: cells; details: Homo sapiens
[4] = tested on: Tyrosine-protein kinase BTK (Homo sapiens), Q06187 [C481S]; test: Inhibition of BTK C481S mutant (unknown origin)
[5] = molecular target: T1, Tyrosine-protein kinase BTK (Homo sapiens, UniProt Q06187); test: Induction of BTK degradation in human MINO cells at 0.1 to 1000 nM incubated for 2 hrs by Western blot analysis; type: cell-based; details: dose 0.1-1000 nM
[6] = Oral bioavailability in ICR mouse at 100 mg/kg measured upto 48 hrs by LC/MS analysis; type: ADME, organism-based; details: in vivo
[7] = tested on: OCI-Ly10; test: Antitumor activity against human OCILY10 cells xenografted in SCID mouse assessed as tumor growth inhibition at 10 mg/kg, po bid measured after 17 days relative to control; type: functional; parameters: scale not given: the % may be the effect or the level left; details: time 17 day
[8] = Tmax in Sprague-Dawley rat at 5 to 10 mg/kg, po administered as cassette dose measured upto 24 hrs by LC-MS analysis; type: ADME, organism-based; details: in vivo, dose 5-10 mg/kg
[9] = molecular target: T1, Tyrosine-protein kinase BTK; test: Induction of BTK degradation in human MINO cells at 100 nM measured after 8 hrs by proteomic analysis; type: cell-based
[10] = Half life in ICR mouse at 100 mg/kg, po measured upto 48 hrs by LC/MS analysis; type: ADME, organism-based; details: in vivo
[11] = molecular target: T1, Tyrosine-protein kinase BTK; test: Induction of BTK degradation in human MINO cells assessed as maximum degradation incubated for 24 hrs by Western blot based densitometry analysis relative to control; type: cell-based
[12] = tested on: JeKo-1; test: cells; details: Homo sapiens
[13] = molecular target: T1, Tyrosine-protein kinase BTK; test: Induction of BTK degradation in human MINO cells incubated for 24 hrs by Western blot based densitometry analysis; type: cell-based
[14] = molecular target: Tyrosine-protein kinase BTK (Mus musculus) (UniProt P35991); test: In vivo induction of BTK degradation in ICR mouse monocytes assessed as protein remaining at 100 mg/kg, po after 6 hrs by Western blot analysis relative to control; type: functional, organism-based
[15] = molecular target: T1, Tyrosine-protein kinase BTK; test: Induction of BTK degradation in human MINO cells assessed as reduction in NFkappaB phosphorylation incubated for 24 hrs by Western blot analysis; type: cell-based; details: dose 1-200 nM, DDE = dose-dependent effect
[16] = tested on: JeKo-1; test: cells; details: Homo sapiens; remark: listed apart in the source
[17] = AUC (0 to infinity) in ICR mouse at 100 mg/kg, po measured upto 48 hrs by LC/MS analysis; type: ADME, organism-based; parameters: time < 48 hrs, dose 100 mg/kg, route po; details: in vivo
[18] = molecular target: T1, Tyrosine-protein kinase BTK; test: Induction of BTK degradation in human MINO cells incubated for 24 hrs by Western blot; type: cell-based; details: dose 1-1000 nM, DDE = dose-dependent effect
[19] = molecular target: T1, Tyrosine-protein kinase BTK; test: Induction of BTK degradation in human MINO cells assessed as reduction in PLCgamma-2 phosphorylation incubated for 24 hrs by Western blot analysis; type: cell-based; details: dose 1-200 nM, DDE = dose-dependent effect
[20] = Toxicity in SCID mouse xenografted with OCILY10 cells assessed as effect on body weight at 10 to 30 mg/kg, po bid measured after 17 days; type: organism-based; details: in vivo, 408 h, dose 10-30 mg/kg, time 17 day
[21] = molecular target: Proto-oncogene tyrosine-protein kinase Src (Homo sapiens) (UniProt P12931); test: Induction of c-SRC tyrosine kinase degradation in human MINO cells at 100 nM measured after 8 hrs by proteomic analysis; type: cell-based
[22] = Cmax in ICR mouse at 100 mg/kg, po measured upto 48 hrs by LC/MS analysis; type: ADME, organism-based; parameters: dose 100 mg/kg, time < 48 hrs, route po; details: in vivo
[23] = Tmax in ICR mouse at 100 mg/kg, po measured upto 48 hrs by LC/MS analysis; type: ADME, organism-based; details: in vivo
[24] = AUC (0 to t) in Sprague-Dawley rat at 5 to 10 mg/kg, po administered as cassette dose measured upto 24 hrs by LC-MS analysis; type: ADME, organism-based; parameters: time < 24 hrs, route po; details: in vivo, dose 5-10 mg/kg
[25] = tested on: TMD8; test: cells; details: Homo sapiens
[26] = molecular target: Tyrosine-protein kinase BTK (Mus musculus) (UniProt P35991); test: In vivo induction of BTK degradation in ICR mouse monocytes assessed as protein remaining at 100 mg/kg, po after 24 hrs by Western blot analysis relative to control; type: functional, organism-based; details: Monocyte
[27] = tested on: HEK293; test: Induction of BTK C481 mutant degradation in human HEK293 cells incubated for 24 hrs by Western blot analysis; type: cell-based; details: dose 1-1000 nM, DDE = dose-dependent effect
[28] = MRT in ICR mouse at 2 mg/kg, iv measured upto 48 hrs by LC/MS analysis; type: ADME, organism-based; details: in vivo
[29] = molecular target: T1, Tyrosine-protein kinase BTK; test: Induction of BTK degradation in human MINO cells at 0.1 to 1000 nM incubated for 8 hrs by Western blot analysis relative to control; type: cell-based; details: dose 0.1-1000 nM
[30] = Cmax in Sprague-Dawley rat at 5 to 10 mg/kg, po administered as cassette dose measured upto 24 hrs by LC-MS analysis; type: ADME, organism-based; parameters: time < 24 hrs, route po; details: in vivo, dose 5-10 mg/kg
[31] = AUC (0 to t) in ICR mouse at 100 mg/kg, po measured upto 48 hrs by LC/MS analysis; type: ADME, organism-based; parameters: time < 48 hrs, dose 100 mg/kg, route po; details: in vivo
[32] = tested on: OCI-Ly10; test: Antitumor activity against human OCILY10 cells xenografted in SCID mouse assessed as tumor growth inhibition at 30 mg/kg, po bid measured after 17 days relative to control; type: functional; parameters: scale not given: the % may be the effect or the level left; details: time 17 day
[33] = Dose normalized AUC (0 to t) in Sprague-Dawley rat at 5 to 10 mg/kg, po administered as cassette dose measured upto 24 hrs by LC-MS analysis; type: ADME, organism-based; details: in vivo, dose 5-10 mg/kg
[34] = tested on: HEK293; test: Induction of BTK T316 mutant degradation in human HEK293 cells incubated for 24 hrs by Western blot analysis; type: cell-based; details: dose 1-1000 nM, DDE = dose-dependent effect
[35] = Half life in Sprague-Dawley rat at 5 to 10 mg/kg, po administered as cassette dose measured upto 24 hrs by LC-MS analysis; type: ADME, organism-based; details: in vivo, dose 5-10 mg/kg
[36] = Clearance in ICR mouse at 2 mg/kg, iv measured upto 48 hrs by LC/MS analysis; type: ADME, organism-based; details: in vivo
[37] = molecular target: T1, Tyrosine-protein kinase BTK; test: Inhibition of BTK (unknown origin)

T1 sequence (Q06187 whole entry): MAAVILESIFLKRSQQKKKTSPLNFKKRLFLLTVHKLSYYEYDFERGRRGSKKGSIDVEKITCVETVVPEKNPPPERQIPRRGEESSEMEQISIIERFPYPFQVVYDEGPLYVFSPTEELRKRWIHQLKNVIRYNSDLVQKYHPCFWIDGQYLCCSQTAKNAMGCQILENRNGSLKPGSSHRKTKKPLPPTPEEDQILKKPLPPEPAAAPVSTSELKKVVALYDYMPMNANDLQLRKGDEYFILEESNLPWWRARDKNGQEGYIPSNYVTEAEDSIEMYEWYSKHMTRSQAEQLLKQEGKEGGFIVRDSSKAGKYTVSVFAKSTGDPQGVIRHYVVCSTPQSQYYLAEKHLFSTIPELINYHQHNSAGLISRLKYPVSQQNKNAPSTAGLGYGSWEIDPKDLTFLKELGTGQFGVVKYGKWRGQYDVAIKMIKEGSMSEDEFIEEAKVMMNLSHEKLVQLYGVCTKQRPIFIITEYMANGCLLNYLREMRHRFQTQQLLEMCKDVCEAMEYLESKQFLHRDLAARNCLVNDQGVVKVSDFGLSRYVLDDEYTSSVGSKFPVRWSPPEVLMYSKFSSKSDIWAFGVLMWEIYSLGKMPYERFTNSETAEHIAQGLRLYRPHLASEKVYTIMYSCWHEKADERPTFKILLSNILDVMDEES
Chain of Tyrosine-protein kinase BTK (Mus musculus) (P35991 whole entry): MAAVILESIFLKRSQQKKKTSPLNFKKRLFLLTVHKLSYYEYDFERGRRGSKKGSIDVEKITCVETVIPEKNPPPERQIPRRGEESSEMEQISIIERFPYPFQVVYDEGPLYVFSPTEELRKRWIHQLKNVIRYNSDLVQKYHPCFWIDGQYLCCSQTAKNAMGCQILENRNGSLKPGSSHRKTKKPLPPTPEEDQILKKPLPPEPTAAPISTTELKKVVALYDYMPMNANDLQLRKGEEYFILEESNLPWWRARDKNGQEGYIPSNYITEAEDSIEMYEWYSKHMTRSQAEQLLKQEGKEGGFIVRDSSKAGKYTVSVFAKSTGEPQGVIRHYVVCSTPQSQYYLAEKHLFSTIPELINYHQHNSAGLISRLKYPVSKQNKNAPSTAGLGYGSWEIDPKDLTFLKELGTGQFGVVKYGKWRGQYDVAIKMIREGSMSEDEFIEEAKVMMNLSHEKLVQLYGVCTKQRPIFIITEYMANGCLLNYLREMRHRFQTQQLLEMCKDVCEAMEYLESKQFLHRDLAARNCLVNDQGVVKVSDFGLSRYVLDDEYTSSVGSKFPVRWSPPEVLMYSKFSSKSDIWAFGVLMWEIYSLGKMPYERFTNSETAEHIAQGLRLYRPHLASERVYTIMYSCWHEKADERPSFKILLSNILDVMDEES
Chain of Proto-oncogene tyrosine-protein kinase Src (Homo sapiens) (P12931 2-536 limits assumed): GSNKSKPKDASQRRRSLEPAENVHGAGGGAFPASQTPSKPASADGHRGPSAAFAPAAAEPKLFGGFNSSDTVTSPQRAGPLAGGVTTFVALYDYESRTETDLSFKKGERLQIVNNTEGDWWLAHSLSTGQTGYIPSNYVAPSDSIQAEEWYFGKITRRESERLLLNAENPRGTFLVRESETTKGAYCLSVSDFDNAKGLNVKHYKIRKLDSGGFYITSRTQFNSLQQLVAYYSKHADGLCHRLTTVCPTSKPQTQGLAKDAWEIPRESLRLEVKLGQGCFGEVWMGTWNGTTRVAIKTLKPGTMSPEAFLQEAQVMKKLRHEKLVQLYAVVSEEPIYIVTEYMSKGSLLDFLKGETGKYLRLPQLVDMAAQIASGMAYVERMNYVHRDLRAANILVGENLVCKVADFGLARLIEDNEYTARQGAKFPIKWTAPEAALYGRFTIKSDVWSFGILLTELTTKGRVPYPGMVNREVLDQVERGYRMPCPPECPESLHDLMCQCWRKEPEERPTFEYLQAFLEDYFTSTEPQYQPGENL
Chain of Tyrosine-protein kinase BTK (Homo sapiens), Q06187 [C481S] (Q06187 whole entry C481S): as the sequence (Q06187 whole entry) above, with C481S counted along it

SMILES: Nc1ncnc2c1c(-c1ccc(Oc3ccccc3)cc1)nn2C1CCN(C2CCN(CC#Cc3ccc4c(c3)CN(C3CCC(=O)NC3=O)C4=O)CC2)CC1 (configuration not stated)
- Activity [1]: Active
- Vd [2]: 3.1 L/kg
- pIC50 [3]: 8.23
- inhibition [4]: Active
- Activity [5]: Active
- bioavailability [6]: 12%
- Activity [7]: 50.9%
- Tmax [8]: 0.7 h
- Activity [9]: Active
- half-life [10]: 1 h
- Emax [11]: 96%
- pIC50 [12]: 6.98
- DC50 [13]: 5.8 nM
- Activity [14]: Active
- Activity [15]: Dde
- pIC50 [16]: 6.15
- AUC(0-inf) [17]: 17100 ng·h/mL
- Activity [18]: Dde
- Activity [19]: Dde
- Activity [20]: Non-Toxic
- Activity [21]: Active
- Cmax [22]: 3090 ng/mL
- Tmax [23]: 8.3 h
- AUC(0-t) at 24 h [24]: 83 ng·h/mL
- pIC50 [25]: 8.33
- Activity [26]: 24%
- Activity [27]: Dde
- MRT [28]: 4.5 h
- Activity [29]: 91%
- Cmax [30]: 16 ng/mL
- AUC(0-t) at 48 h [31]: 16900 ng·h/mL
- Activity [32]: 96.9%
- AUCt/dose [33]: 8 ng·h/mL/mg
- Activity [34]: Dde
- half-life [35]: 12.7 h
- clearance [36]: 11.8 mL/min/kg
- pIC50 [37]: 8.05
